Experimental data reported in ChEMBL document CHEMBL1152299, “Indazole-based liver X receptor (LXR) modulators with maintained atherosclerotic lesion reduction activity but diminished stimulation of hepatic triglyceride synthesis” (J Med Chem, 2008).
The source made the active and inactive calls. The rule behind the calls is not given here.

Columns and labels:
Androgen receptor = biological target: T1, Androgen receptor (Homo sapiens, UniProt P10275); experiment: (§1) Displacement of radiolabeled mibolerone from human androgen receptor by filter paper assay
T1 sequence (P10275 whole entry): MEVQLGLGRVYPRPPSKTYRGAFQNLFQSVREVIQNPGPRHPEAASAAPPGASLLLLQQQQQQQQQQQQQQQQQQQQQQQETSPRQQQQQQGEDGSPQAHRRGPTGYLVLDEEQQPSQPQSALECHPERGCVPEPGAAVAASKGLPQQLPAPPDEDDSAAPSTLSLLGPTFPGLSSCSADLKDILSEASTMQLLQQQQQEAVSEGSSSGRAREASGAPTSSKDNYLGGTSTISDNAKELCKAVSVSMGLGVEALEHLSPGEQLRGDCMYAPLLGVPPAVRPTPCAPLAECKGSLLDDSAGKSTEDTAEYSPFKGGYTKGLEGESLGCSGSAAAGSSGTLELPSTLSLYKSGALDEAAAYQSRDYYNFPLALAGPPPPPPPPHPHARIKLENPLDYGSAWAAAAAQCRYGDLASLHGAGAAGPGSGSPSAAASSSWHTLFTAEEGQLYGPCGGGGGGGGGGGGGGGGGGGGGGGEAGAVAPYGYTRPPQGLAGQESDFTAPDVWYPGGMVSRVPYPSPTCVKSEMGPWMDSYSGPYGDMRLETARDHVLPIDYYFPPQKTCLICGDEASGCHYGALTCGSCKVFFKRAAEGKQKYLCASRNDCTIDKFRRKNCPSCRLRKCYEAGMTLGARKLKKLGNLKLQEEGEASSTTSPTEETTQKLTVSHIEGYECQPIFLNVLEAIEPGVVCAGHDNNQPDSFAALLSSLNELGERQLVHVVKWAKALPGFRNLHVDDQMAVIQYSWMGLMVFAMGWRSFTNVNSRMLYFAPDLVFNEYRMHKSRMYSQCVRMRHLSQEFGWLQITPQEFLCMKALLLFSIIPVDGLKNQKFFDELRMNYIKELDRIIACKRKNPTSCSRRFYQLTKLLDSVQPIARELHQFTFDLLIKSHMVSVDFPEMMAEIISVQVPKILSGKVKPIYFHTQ

Glucocorticoid receptor = biological target: T2, Glucocorticoid receptor (Homo sapiens, UniProt P04150); experiment: Displacement of radiolabeled Dexamethasone from human glucocorticoid receptor by filter paper assay
T2 sequence (P04150 whole entry): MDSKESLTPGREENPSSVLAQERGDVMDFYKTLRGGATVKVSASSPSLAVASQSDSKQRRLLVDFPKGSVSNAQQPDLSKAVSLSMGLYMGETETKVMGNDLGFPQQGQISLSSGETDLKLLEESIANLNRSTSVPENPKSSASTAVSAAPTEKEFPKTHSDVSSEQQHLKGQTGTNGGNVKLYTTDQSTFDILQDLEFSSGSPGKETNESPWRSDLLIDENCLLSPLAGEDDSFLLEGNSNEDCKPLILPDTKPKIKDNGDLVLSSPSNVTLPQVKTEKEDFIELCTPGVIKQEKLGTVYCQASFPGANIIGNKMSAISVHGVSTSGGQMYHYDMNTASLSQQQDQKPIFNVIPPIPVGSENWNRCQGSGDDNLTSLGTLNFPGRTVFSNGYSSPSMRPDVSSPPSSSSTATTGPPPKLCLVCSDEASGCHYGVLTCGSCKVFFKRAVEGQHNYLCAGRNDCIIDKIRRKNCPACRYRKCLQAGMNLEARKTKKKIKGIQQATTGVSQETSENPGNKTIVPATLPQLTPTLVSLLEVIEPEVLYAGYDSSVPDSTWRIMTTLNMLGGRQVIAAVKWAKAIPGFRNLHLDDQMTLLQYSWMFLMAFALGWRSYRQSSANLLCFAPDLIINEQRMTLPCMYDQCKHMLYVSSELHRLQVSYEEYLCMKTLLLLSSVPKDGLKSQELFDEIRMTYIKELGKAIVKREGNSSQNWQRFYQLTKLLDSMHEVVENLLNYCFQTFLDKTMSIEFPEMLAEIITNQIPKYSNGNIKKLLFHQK

[1] = Bioavailability in C57 mouse at 1 mg/kg, iv and 10 mg/kg, po; type: ADME, organism-based; conditions: in vivo
[2] = Clearance in C57 mouse at 1 mg/kg, iv and 10 mg/kg, po; type: ADME, organism-based; conditions: in vivo
Mus musculus [3] = experiment: Upregulation of ABCA1 gene expression in LDL receptor knockout C57BL/6 mouse duodenum at 15 mg/kg administered with Western diet; type: functional; conditions: route oral
Mus musculus [4] = experiment: Increase in CYP7A1 gene expression in LDL receptor knockout C57BL/6 mouse liver at 15 mg/kg administered with Western diet; type: functional
[5] = AUC (0 to infinity) in C57 mouse at 1 mg/kg, iv and 10 mg/kg, po; type: ADME, organism-based; conditions: plasma
[6] = biological target: T3, Androgen receptor (Homo sapiens) (UniProt P10275); experiment: as §1
T3 sequence (whole entry): T1 sequence (P10275 whole entry)

Syrian golden hamster = experiment: Induction of FAS gene expression in golden Syrian hamster liver at 100 mg/kg administered with chow diet for 7 days measured after 2 hrs of final dose by real time PCR; type: functional, organism-based; set-up: dose 100 mg/kg; conditions: Mesocricetus auratus
[7] = Cmax in male C57 mice after 10 mg/kg oral dose; type: ADME, organism-based; set-up: dose 10 mg/kg, route oral; conditions: C57, mouse, in vivo
[8] = biological target: Retinoid X receptor (Homo sapiens) (UniProt P28702+P48443+P19793); experiment: Displacement of radiolabeled 9-cis retinoic acid from human RXR by scintillation proximity assay; type: protein assay
Chain of Retinoid X receptor (Homo sapiens) (P19793 whole entry, looked up): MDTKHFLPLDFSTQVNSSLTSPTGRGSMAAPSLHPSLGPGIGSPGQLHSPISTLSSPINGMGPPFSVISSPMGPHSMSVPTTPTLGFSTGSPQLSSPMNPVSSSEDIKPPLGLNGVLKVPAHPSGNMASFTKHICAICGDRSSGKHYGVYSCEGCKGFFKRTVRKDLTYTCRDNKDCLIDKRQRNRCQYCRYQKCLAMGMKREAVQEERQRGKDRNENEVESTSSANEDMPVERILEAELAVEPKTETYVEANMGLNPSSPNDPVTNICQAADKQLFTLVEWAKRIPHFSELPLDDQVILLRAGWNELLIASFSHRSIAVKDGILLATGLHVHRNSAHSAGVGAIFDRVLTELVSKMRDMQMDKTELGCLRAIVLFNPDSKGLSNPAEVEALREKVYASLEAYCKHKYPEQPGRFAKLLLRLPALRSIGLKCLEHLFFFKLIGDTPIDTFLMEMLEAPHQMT
Chain of Retinoid X receptor (Homo sapiens) (P28702 whole entry, looked up): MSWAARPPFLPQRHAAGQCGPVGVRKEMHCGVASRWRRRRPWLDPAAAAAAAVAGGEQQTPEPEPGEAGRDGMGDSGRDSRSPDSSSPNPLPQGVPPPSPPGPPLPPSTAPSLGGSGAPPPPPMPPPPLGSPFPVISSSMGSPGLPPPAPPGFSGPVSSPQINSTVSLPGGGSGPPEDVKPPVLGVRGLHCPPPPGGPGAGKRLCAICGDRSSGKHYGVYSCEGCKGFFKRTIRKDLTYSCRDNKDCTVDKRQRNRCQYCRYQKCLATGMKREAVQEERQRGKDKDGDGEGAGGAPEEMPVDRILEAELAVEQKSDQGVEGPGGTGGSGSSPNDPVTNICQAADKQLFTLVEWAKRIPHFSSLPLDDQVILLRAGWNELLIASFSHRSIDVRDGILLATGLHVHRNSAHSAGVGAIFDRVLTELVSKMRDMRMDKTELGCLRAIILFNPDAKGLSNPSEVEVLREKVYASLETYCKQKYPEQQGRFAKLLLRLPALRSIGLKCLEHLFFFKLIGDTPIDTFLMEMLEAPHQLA
Chain of Retinoid X receptor (Homo sapiens) (P48443 whole entry, looked up): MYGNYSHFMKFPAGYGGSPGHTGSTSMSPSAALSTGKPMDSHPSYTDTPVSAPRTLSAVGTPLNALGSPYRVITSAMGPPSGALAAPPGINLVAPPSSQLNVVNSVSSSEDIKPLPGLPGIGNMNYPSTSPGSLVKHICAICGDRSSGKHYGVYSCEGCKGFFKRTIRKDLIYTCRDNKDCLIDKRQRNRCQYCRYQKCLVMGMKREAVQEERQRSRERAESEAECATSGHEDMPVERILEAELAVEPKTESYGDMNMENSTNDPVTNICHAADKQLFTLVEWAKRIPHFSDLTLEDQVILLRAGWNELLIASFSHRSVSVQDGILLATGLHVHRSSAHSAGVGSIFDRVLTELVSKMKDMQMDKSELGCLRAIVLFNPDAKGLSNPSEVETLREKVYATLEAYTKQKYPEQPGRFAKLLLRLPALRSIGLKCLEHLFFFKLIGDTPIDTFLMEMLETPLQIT

IC50 (Androgen receptor) [nM]	IC50 (Glucocorticoid receptor) [nM]	bioavailability [1] [%]	clearance [2] [mL/min/kg]	AUC(0-inf) [5] [ng·h/mL]	Activity [6]	Cmax [7] [ng/mL]	Activity [8]	SMILES	fold change (FC) (Mus musculus [3])	fold change (FC) (Mus musculus [4])	Activity (Syrian golden hamster)
2300	1000	–	–	–	–	–	–	Fc1ccc(-c2c3cccc(C(F)(F)F)c3nn2Cc2ccc(F)cc2Cl)cc1 [LXR-623]	–	–	–
–	7200	106	57	3100	inactive	633	inactive	Fc1ccc(-c2c3cccc(C(F)(F)F)c3nn2Cc2ccccc2F)cc1	2.3	4	inactive
